Results published in patent publication US12281122B1, “PI3K inhibitors” (Cogent Biosciences, Inc., priority 2023, dated 2025).

Columns and labels:
[1] = test system: SKBR3 (PI3Kα-Wild Type) cell line; assay: HTRF phospho-AKT(S473) cell assay in SKBR3 cells; format: cell-based, human
Method: (§1) Compounds in the present disclosure were tested in a cell based HTRF phospho-AKT(S473) (CisBio/Revvity) assay in human breast cancer cell lines as a measurement of PIK3CA activity through measuring AKT, a downstream effector. The activity of mutant PI3Kα-H1047R and PI3Kα-Wild Type was measured in the T47D (PI3Kα-H1047R) and SKBR3 (PI3Kα-Wild Type) cell lines, respectively. T47D cells were plated at 20,000 cells per well in 50 μL in RPMI medium supplemented with 10% FBS and 0.2 units/mL insulin, in 384 well plates. SKBR3 cells were plated at 25,000 cells per well in 50 μL in McCoy's 5A medium supplemented with 10% FBS, in 384 well plates. Cells were plated using a Combi Multidrop reagent dispenser (ThermoFisher), and placed in 5% CO2, 37° C. incubator overnight to adhere.
(§2) The next day, cells were treated with either compounds or vehicle (DMSO) in a 12-fold dose response curve of 1:3 dilutions, with 5 μM and 10 μM as the top concentrations for the T47D and SKBR3 cell lines, respectively. Compound treatment was facilitated via the D300e digital dispenser (Tecan), with a maximum DMSO concentration of 0.5%. Following compound addition, cell plates were incubated for 2 hours in 5% CO2, 37° C. incubator. The SKBR3 cells were stimulated and treated with 70 ng/ml PDGF-BB ligand (ThermoFisher) for the remaining 15 minutes of the incubation. Following compound incubation, compound and media was aspirated from the cells and 25 μL of supplemented lysis buffer was added per well, and incubated for 45 minutes at room temperature, shaking at 600 rpm. Next, 16 μL of cell lysate was added to a 384 well low volume ProxyPlate (Perkin Elmer/Revvity) mixed with 4 μL of HTRF antibodies (1:1 Eu Cryptate+d2 Cryptate). HTRF supplemented lysis buffer and antibody reagents were used from the phosphor-AKT(S473) HTRF assay kit (CisBio/Revvity), following manufacturers protocol recommendations. Plates were sealed and incubated at 4° C. overnight.
(§3) The following day, plates were centrifuged for 1 minute at 1000 rpm, and read on a PHERAstar plate reader. IC50 values were calculated using Spotfire software.

[2] = test system: T47D (PI3Kα-H1047R) cell line; assay: HTRF phospho-AKT(S473) cell assay in T47D cells; format: cell-based, human
Method: as §1, §2, §3

[3] = Homo sapiens, SK-BR-3; SKBR3 (PI3Kα-Wild Type) cells, HTRF phospho-AKT(S473), 2 hours compound incubation, PDGF-BB stimulated
[4] = Homo sapiens; T47D (PI3Kα-H1047R) cells, HTRF phospho-AKT(S473), 2 hours compound incubation
[5] = Homo sapiens, SK-BR-3; HTRF phospho-AKT(S473), SKBR3 (PI3Kα-Wild Type) cells, 2 hours compound incubation, PDGF-BB stimulated
[6] = Homo sapiens; HTRF phospho-AKT(S473), T47D (PI3Kα-H1047R) cells, 2 hours compound incubation

Q: Which results are given for `Cc1cc([C@@H](C)Nc2ccc(Cl)nc2C(=O)NS(C)(=O)=O)c2nc(N3[C@@H]4CC[C@H]3C[C@@H](c3cnn(C)c3)C4)n(C)c(=O)c2c1` [Compound 297, 6-chloro-3-(((R)-1-(3,6-dimethyl-2-((1R,3R,5S)-3-(1-methyl-1H-pyrazol-4-yl)-8-azabicyclo[3.2.1]octan-8-yl)-4-oxo-3,4-dihydroquinazolin-8-yl)ethyl)amino)-N-(methylsulfonyl) picolinamide]?
A: IC50 [1, 3]: ≥ 5000 nM; IC50 [2, 4]: 250 to 500 nM

Q: What does the source list for `Cc1cc([C@@H](C)Nc2ccc(Cl)nc2C(=O)NS(C)(=O)=O)c2nc(N3CC[C@H](c4ccnc(C)c4)C3)n(C)c(=O)c2c1` (relative stereo) [Compound 769, 6-chloro-3-(((R)-1-(3,6-dimethyl-2-((R*)-3-(2-methylpyridin-4-yl)pyrrolidin-1-yl)-4-oxo-3,4-dihydroquinazolin-8-yl)ethyl)amino)-N-(methylsulfonyl) picolinamide]?
A: IC50 [1, 5]: 1000 to 5000 nM; IC50 [2, 6]: < 250 nM

Q: Which results are given for `Cc1cc([C@@H](C)Nc2ccc(Cl)nc2C(=O)NS(C)(=O)=O)c2nc(N3Cc4cn([C@H](C)C(F)(F)F)nc4C3)n(C)c(=O)c2c1` (relative stereo) [Compound 224, 6-chloro-3-(((R)-1-(3,6-dimethyl-4-oxo-2-(2-((R*)-1,1,1-trifluoropropan-2-yl)-2,6-dihydropyrrolo[3,4-c]pyrazol-5(4H)-yl)-3,4-dihydroquinazolin-8-yl)ethyl)amino)-N-(methylsulfonyl) picolinamide]?
A: IC50 [1, 3]: 1000 to 5000 nM; IC50 [2, 4]: < 250 nM

Q: With `Cc1cc([C@@H](C)Nc2ccc(Cl)nc2C(=O)NS(C)(=O)=O)c2nc(N3[C@@H]4CC[C@H]3C[C@@H](c3cnn(C)c3)C4)n(C)c(=O)c2c1` (racemic) [Compound 381, 6-chloro-3-(((R)-1-(3,6-dimethyl-2-((1RS,3RS,5SR)-3-(1-methyl-1H-pyrazol-4-yl)-8-azabicyclo[3.2.1]octan-8-yl)-4-oxo-3,4-dihydroquinazolin-8-yl)ethyl)amino)-N-(methylsulfonyl) picolinamide] as the molecule, how does the IC50 [1, 3] read?
A: Its IC50 is 1000 to 5000 nM.

Q: What about the IC50 [2, 4] of the same molecule?
A: The IC50 was less than 250 nM.

Q: Which results are given for `Cc1cc([C@@H](C)Nc2ccc(Cl)nc2C(=O)NS(C)(=O)=O)c2nc(N3C[C@@H]4[C@H](C3)[C@H]4c3ccc(N(C)C)nc3)n(C)c(=O)c2c1` [Compound 393, 6-chloro-3-(((R)-1-(2-((1R,5S,6S)-6-(6-(dimethylamino)pyridin-3-yl)-3-azabicyclo[3.1.0]hexan-3-yl)-3,6-dimethyl-4-oxo-3,4-dihydroquinazolin-8-yl)ethyl)amino)-N-(methylsulfonyl) picolinamide]?
A: IC50 [1, 3]: ≥ 5000 nM; IC50 [2, 4]: 250 to 500 nM

Q: How did the IC50 [1, 5] turn out when `COc1nn(C)cc1[C@H]1[C@@H]2CN(c3nc4c([C@@H](C)Nc5ccc(Cl)nc5C(=O)NS(C)(=O)=O)cc(C)cc4c(=O)n3C)C[C@@H]21` [Compound 440, 6-chloro-3-(((R)-1-(2-((1R,5S,6S)-6-(3-methoxy-1-methyl-1H-pyrazol-4-yl)-3-azabicyclo[3.1.0]hexan-3-yl)-3,6-dimethyl-4-oxo-3,4-dihydroquinazolin-8-yl)ethyl)amino)-N-(methylsulfonyl) picolinamide] was run?
A: The IC50 was 1000 to 5000 nM.

Q: And the IC50 [2, 6]?
A: The IC50 was less than 250 nM.

Q: How did the IC50 [1, 3] turn out when `Cc1cc([C@@H](C)Nc2ccc(Cl)nc2C(=O)NS(C)(=O)=O)c2nc(N3C[C@@H]4[C@H](C3)[C@H]4c3nn(C)cc3C)n(C)c(=O)c2c1` [Compound 415, 6-chloro-3-(((R)-1-(2-((1R,5S,6R)-6-(1,4-dimethyl-1H-pyrazol-3-yl)-3-azabicyclo[3.1.0]hexan-3-yl)-3,6-dimethyl-4-oxo-3,4-dihydroquinazolin-8-yl)ethyl)amino)-N-(methylsulfonyl) picolinamide] was run?
A: Its IC50 is 1000 to 5000 nM.

Q: What about the IC50 [2, 4] of the same molecule?
A: The IC50 was less than 250 nM.

Q: For `Cc1cc([C@@H](C)Nc2ccc(Cl)nc2C(=O)NS(C)(=O)=O)c2nc(N3CCC[C@H](c4ccn(C(F)F)n4)C3)n(C)c(=O)c2c1` (relative stereo) [Compound 770, 6-chloro-3-(((R)-1-(2-((R*)-3-(1-(difluoromethyl)-1H-pyrazol-3-yl)piperidin-1-yl)-3,6-dimethyl-4-oxo-3,4-dihydroquinazolin-8-yl)ethyl)amino)-N-(methylsulfonyl) picolinamide], which IC50 [1, 5] is on record?
A: The IC50 was no less than 5000 nM.

Q: And the IC50 [2, 6]?
A: The IC50 was 250 to 500 nM.

Q: `Cc1cc([C@@H](C)Nc2ccc(Cl)nc2C(=O)NS(C)(=O)=O)c2nc(N3[C@@H]4CC[C@H]3C[C@H](c3cnn(C)c3)C4)n(C)c(=O)c2c1` [Compound 298, 6-chloro-3-(((R)-1-(3,6-dimethyl-2-((1R,3S,5S)-3-(1-methyl-1H-pyrazol-4-yl)-8-azabicyclo[3.2.1]octan-8-yl)-4-oxo-3,4-dihydroquinazolin-8-yl)ethyl)amino)-N-(methylsulfonyl) picolinamide] was tested. Which IC50 [1, 3] did it give?
A: Its IC50 is no less than 5000 nM.

Q: What about the IC50 [2, 4] of the same molecule?
A: The IC50 was less than 250 nM.

Q: What does the source list for `Cc1cc([C@@H](C)Nc2ccc(Cl)nc2C(=O)NS(C)(=O)=O)c2nc(N3CCC(n4cc(C)cn4)CC3)n(C)c(=O)c2c1` [Compound 197, (R)-6-chloro-3-((1-(3,6-dimethyl-2-(4-(4-methyl-1H-pyrazol-1-yl)piperidin-1-yl)-4-oxo-3,4-dihydroquinazolin-8-yl)ethyl)amino)-N-(methylsulfonyl) picolinamide]?
A: IC50 [1, 3]: 1000 to 5000 nM; IC50 [2, 4]: < 250 nM

Q: With `Cc1cc([C@@H](C)Nc2ccc(Cl)nc2C(=O)NS(C)(=O)=O)c2nc(N3CCC[C@H](C#N)C3)n(C)c(=O)c2c1` [Compound 209, 6-chloro-3-(((R)-1-(2-((S)-3-cyanopiperidin-1-yl)-3,6-dimethyl-4-oxo-3,4-dihydroquinazolin-8-yl)ethyl)amino)-N-(methylsulfonyl) picolinamide] as the molecule, how does the IC50 [1, 3] read?
A: The IC50 was 1000 to 5000 nM.

Q: What about the IC50 [2, 4] of the same molecule?
A: The IC50 was less than 250 nM.

Q: What does the source list for `Cc1cc([C@@H](C)Nc2ccc(Cl)nc2C(=O)NS(C)(=O)=O)c2nc(N3Cc4cn(-c5ncc(C#N)cc5C)nc4C3)n(C)c(=O)c2c1` [Compound 698, (R)-6-chloro-3-((1-(2-(2-(5-cyano-3-methylpyridin-2-yl)-2,6-dihydropyrrolo[3,4-c]pyrazol-5(4H)-yl)-3,6-dimethyl-4-oxo-3,4-dihydroquinazolin-8-yl)ethyl)amino)-N-(methylsulfonyl) picolinamide]?
A: IC50 [1, 5]: 1000 to 5000 nM; IC50 [2, 6]: 250 to 500 nM

Q: `Cc1cc([C@@H](C)Nc2ccc(Cl)nc2C(=O)NS(C)(=O)=O)c2nc(N3CCC(c4nc(C(F)(F)F)n(C)n4)CC3)n(C)c(=O)c2c1` [Compound 458, (R)-6-chloro-3-((1-(3,6-dimethyl-2-(4-(1-methyl-5-(trifluoromethyl)-1H-1,2,4-triazol-3-yl)piperidin-1-yl)-4-oxo-3,4-dihydroquinazolin-8-yl)ethyl)amino)-N-(methylsulfonyl) picolinamide] was tested. Which IC50 [1, 5] did it give?
A: Its IC50 is no less than 5000 nM.

Q: What about the IC50 [2, 6] of the same molecule?
A: Its IC50 is 250 to 500 nM.

Q: For `Cc1cc([C@@H](C)Nc2ccc(Cl)nc2C(=O)NS(C)(=O)=O)c2nc(N3CC[C@@H](c4ccn(C)n4)CC3(C)C)n(C)c(=O)c2c1` (relative stereo) [Compound 324, 6-chloro-3-(((R)-1-(2-((R*)-2,2-dimethyl-4-(1-methyl-1H-pyrazol-3-yl)piperidin-1-yl)-3,6-dimethyl-4-oxo-3,4-dihydroquinazolin-8-yl)ethyl)amino)-N-(methylsulfonyl) picolinamide], which IC50 [1, 3] is on record?
A: Its IC50 is no less than 5000 nM.

Q: And the IC50 [2, 4]?
A: The IC50 was less than 250 nM.

Q: With `Cc1cc([C@@H](C)Nc2ccc(Cl)nc2C(=O)NS(C)(=O)=O)c2nc(-c3ccc4c(c3)ncn4C)n(C)c(=O)c2c1` [Compound 833, (R)-6-chloro-3-((1-(3,6-dimethyl-2-(1-methyl-1H-benzo[d]imidazol-5-yl)-4-oxo-3,4-dihydroquinazolin-8-yl)ethyl)amino)-N-(methylsulfonyl) picolinamide] as the molecule, how does the IC50 [1, 5] read?
A: The IC50 was 1000 to 5000 nM.

Q: What about the IC50 [2, 6] of the same molecule?
A: The IC50 was 250 to 500 nM.

Q: What does the source list for `Cc1cc([C@@H](C)Nc2ccc(Cl)nc2C(=O)NS(C)(=O)=O)c2nc(-c3cc4cn(C)nc4cn3)n(C)c(=O)c2c1` [Compound 839, (R)-6-chloro-3-((1-(3,6-dimethyl-2-(2-methyl-2H-pyrazolo[3,4-c]pyridin-5-yl)-4-oxo-3,4-dihydroquinazolin-8-yl)ethyl)amino)-N-(methylsulfonyl) picolinamide]?
A: IC50 [1, 5]: 1000 to 5000 nM; IC50 [2, 6]: 250 to 500 nM

Q: Which results are given for `Cc1cc([C@@H](C)Nc2ccc(Cl)nc2C(=O)NS(C)(=O)=O)c2nc(N3CCC(c4cccc(=O)n4C)CC3)n(C)c(=O)c2c1` [Compound 370, (R)-6-chloro-3-((1-(3,6-dimethyl-2-(4-(1-methyl-6-oxo-1,6-dihydropyridin-2-yl)piperidin-1-yl)-4-oxo-3,4-dihydroquinazolin-8-yl)ethyl)amino)-N-(methylsulfonyl) picolinamide]?
A: IC50 [1, 3]: 1000 to 5000 nM; IC50 [2, 4]: < 250 nM
